These results are taken from patent US10155743B2, “Glutarimide derivatives, use thereof, pharmaceutical composition based thereon and methods for producing glutarimide derivatives” (OBSCHESTVO S OGRANICHENNOI OTVETSTVENNOSTIYU …, priority 2013, dated 2018).

Assay [1] has as its system mucous membrane of nasal passages, formalin-induced acute rhinosinusitis. Put plainly: Acute rhinosinusitis rat model (induced by intranasal 7.5% formalin solution). The assay is classed as in vivo, Wistar rats. The following applies: rats; for The number of caliciform cells within 1 mm of the mucous membrane of the nasal septum: tested compounds 27 mg/kg for 7 days after induction, M ± m; for Macroscopic changes in the mucous membrane of nasal passages: Muculent or mucopurulent catarrh (number of animals) / Macroscopic changes in the mucous membrane of nasal passages: Without changes (number of animals): tested compounds 27 mg/kg for 7 days, count out of n of the group. As for the experimental part: Morphological studies of histologic preparations were conducted with a Leica DMLS light-optical microscope (Leica Microsystems, Germany). Micro-morphometric assessment was performed by using an ocular micrometer on a Leica DMLB microscope.
Acute rhinosinusitis was induced by intranasal administration of 20 μl of 7.5% formalin solution (aqueous solution comprising 40% formaldehyde, 8% methyl alcohol, and 52% water) to each nasal passage of rats.
Administration of formalin to rat nasal passages leads to the dissemination of inflammation to adjacent tissues, resulting in a clinical pattern similar to the symptoms of rhinosinusitis in a human.
After an acclimatization period, the following groups were formed: • intact animals administered intragastrically a saline solution in an amount of 0.2 ml, the induction of acute rhinosinusitis was not performed; • a control group consisted of the animals administered intragastrically a saline solution in an amount of 0.2 ml for 7 days after induction of acute rhinosinusitis; • animals administered intramuscularly dexamethasone at a dose of 0.33 mg/kg for 7 days after induction of acute rhinosinusitis; and • animals administered the tested compounds at a dose of 27 mg/kg for 7 days after induction of acute rhinosinusitis.
Clinical observation of each animal was performed every day at least twice daily.
In the experiment with Wistar rats, the induction of acute rhinosinusitis by administration of a 7.5% formalin solution to nasal passages caused in the control group of animals pronounced pathological changes characterizing the development of an acute inflammation process in the nasal mucous. The caused pathology was characterized by congestion, hyperplasia, focal necrosis of the nasal meatus mucous membrane, an increased number of caliciform cells, pronounced infiltration by mononuclear cells and leucocytes, and mucus hyperproduction by submucosal glands.
The mucous and submucous membranes of both nasal passages (respiratory and olfactory regions) of the experimental animals were subjected to a morphological analysis to evaluate a specific activity of the compounds.
For microscopic examination, the sections were stained with hematoxylin and eosin. Detection of acid mukopolysaccharides, the production of which is increased in an inflammation, was performed by histochemical staining of the preparation with Alcian Blue (pH 2.5). The comparison and histological evaluation of changes were performed versus the group of intact rats.
After slaughter, the gross appearance of inflammation in the nasal passages was studied in each animal. Histological, hystochemical and morphological studies of rats were intended to evaluate the following characteristics of nasal passages: congestion of the mucous membrane; hyperplasia and necrosis of nasal epithelium, the number of caliciform cells within 1 mm of the mucous membrane of the nasal septum, and the character of inflammation.
In this study, the efficiency of the mucociliary system was evaluated by the number of caliciform cells and, as a consequence, microscopic changes in the mucous membrane of the nasal passages.

For assay [2], the system named is human respiratory syncytial virus (strain A2, ATCC VR-1540). In kind it is in vivo. The following applies: Balb/c mice, cyclophosphan 100 mg/kg 5 days before infection; 30 mg/kg once daily for 5 days from 24 h; score from possible 4; M ± SD, n = 5.
Assay [3] has as its system influenza virus strain A/California/07/09 (H1N1) pdm09. The assay can be described thus: animal or person. In kind it is in vivo, white outbred female mice. The following applies: unidentified influenza virus, H1N1, in Mus musculus, po, 336 h, read-out: Mortality rate, %.
The test system of assay [4] is hRV strain (GKV reg. No. 2730). Put plainly: Antiviral activity against rhinovirus in mice (body weight, lung weight, infectious titer in lungs). The assay is classed as in vivo. The following applies: for Body weight of the mice after infection with hRV, day 1: day 1 after infection; for Body weight of the mice after infection with hRV, day 2 / Lung weight of the mice after infection with hRV, day 2: day 2 after infection; for Body weight of the mice after infection with hRV, day 3 / Lung weight of the mice after infection with hRV, day 3: day 3 after infection; for Body weight of the mice after infection with hRV, day 4 / Lung weight of the mice after infection with hRV, day 4: day 4 after infection.

In assay [5] the test system is Coxsackie A2-virus (strain HCXV A2). The assay can be described thus: Antiviral activity against Coxsackie virus in vivo (mortality of infected mice). On the set-up: species or system white mice. The settings on record: mice; for inhibition in vivo at 30 mg/kg / mortality at 30 mg/kg: Mus musculus, po; for inhibition in vivo at 30 mg/kg: 168 h, read-out: Protective index (%); for inhibition in vivo at 30 mg/kg / Average expectancy life (days), Relative / Average expectancy life (days), Vs. control: 10LD50 HCXV A2, 30 mg/kg orally once daily for 7 days; for mortality at 30 mg/kg: 360 h, 10LD50 HCXV A2 i.m., 30 mg/kg orally once daily for 7 days from 24 h after infection, 15 days monitoring, read-out: Total mortality rate, %; for Average expectancy life (days), Vs. control: difference to virus control.

[6] abbreviates: 30 mg/kg orally, difference control minus experimental group.
Where [7] appears, read: 30 mg/kg orally, lung suspension titrated in Hela cell culture.
Where [8] appears, read: Ribavirin 40 mg/kg, Hela cell culture.

Turning to `CC1(C)CC(=O)N(CCc2cnc[nH]2)C(=O)C1` [Compound 3], in assay [1], the “The number of caliciform cells within 1 mm of the mucous membrane of the nasal septum” value was found to be 35.8 ± 0.9, the “Macroscopic changes in the mucous membrane of nasal passages: Muculent or mucopurulent catarrh (number of animals)” value was 7 and the “Macroscopic changes in the mucous membrane of nasal passages: Without changes (number of animals)” value is listed as 5. In addition, in assay [2], the “Degree of pulmonary edema on day 5 after infection, score” value (shortened to “Degree of pulmonary edema”) worked out at 1.6 ± 0.89 score.
For the compound `O=C1CCCC(=O)N1CCC1CCCN1` (centres unmarked) [Compound 4], in assay [3], the mortality at 30 mg/kg was found to be 65%. Further, in assay [4] (30 mg/kg orally once daily for 5 days starting 12 hours after infection), the “Body weight of the mice after infection with hRV, day 0” value was found to be 7.77 ± 1.02. Also, in assay [4] (30 mg/kg orally once daily), the “Body weight of the mice after infection with hRV, day 1” value is 7.27 ± 1.27; the “Body weight of the mice after infection with hRV, day 2” value is listed as 12.66 ± 2.32; the “Lung weight of the mice after infection with hRV, day 2” value was 142 ± 4.81; the “Body weight of the mice after infection with hRV, day 3” value came out at 13.14 ± 1.5. Moreover, in assay [4] (30 mg/kg orally once daily), the “Lung weight of the mice after infection with hRV, day 3” value turned out to be 135.9 ± 4.18; the “Body weight of the mice after infection with hRV, day 4” value was 13.23 ± 1.38; the “Lung weight of the mice after infection with hRV, day 4” value turned out to be 134.2 ± 3.68. For the same compound, in assay [4] (setting [6]), the “Suppression of the reproduction of the virus in mouse lungs, Δ lg, Day 2 after infection” value was 1.65 ± 0.65 Δ lg; the “Suppression of the reproduction of the virus in mouse lungs, Δ lg, Day 3 after infection” value is on record as 1.9 ± 0.27 Δ lg; the “Suppression of the reproduction of the virus in mouse lungs, Δ lg, Day 4 after infection” value is reported as 2.2 ± 4.68 Δ lg. For the same compound, in assay [4] (setting [7]), the “Infectious titer of the virus in lungs, lg TCID50, Day 2 after infection” value was 2.35 ± 0.65 lg TCID50; the “Infectious titer of the virus in lungs, lg TCID50, Day 3 after infection” value is given as 0.6 ± 0.27 lg TCID50; the “Infectious titer of the virus in lungs, lg TCID50, Day 4 after infection” value came out at 0 ± 0 lg TCID50. Besides, the “Degree of pulmonary edema” value in assay [2] came out at 1.95 ± 0.31 score.
With `Cn1cnc(CCN2C(=O)CCCC2=O)c1` [Compound 5], the mortality at 30 mg/kg in assay [3] amounted to 45%. Further, in assay [2], the “Degree of pulmonary edema” value turned out to be 1.10 ± 0.19 score.
For `O=C1CCCC(=O)N1CCc1nccs1` [Compound 6], in assay [1], the “The number of caliciform cells within 1 mm of the mucous membrane of the nasal septum” value stood at 36.5 ± 0.8, the “Macroscopic changes in the mucous membrane of nasal passages: Muculent or mucopurulent catarrh (number of animals)” value came to 4 and the “Macroscopic changes in the mucous membrane of nasal passages: Without changes (number of animals)” value is 2. Further, the “Degree of pulmonary edema” value in assay [2] worked out at 0.90 ± 0.22 score.
Regarding `O=C1CCCC(=O)N1CCc1ccncc1` [Compound 9], in assay [2], the “Degree of pulmonary edema” value was 1.00 ± 0.17 score.
For the compound `O=C1CCCC(=O)N1CCc1ccsc1` [Compound 12], in assay [5], the inhibition in vivo at 30 mg/kg is 45%; the mortality at 30 mg/kg came out at 40%; the “Average expectancy life (days), Relative” value is listed as 24.9 days; the “Average expectancy life (days), Vs. control” value is “+14.2 days”. Besides, in assay [3], the mortality at 30 mg/kg worked out at 60%.
For `CC1(C)CCC(=O)N(CCc2c[nH]cn2)C1=O` [Compound 20], in assay [1], the “Macroscopic changes in the mucous membrane of nasal passages: Muculent or mucopurulent catarrh (number of animals)” value is on record as 4 and the “Macroscopic changes in the mucous membrane of nasal passages: Without changes (number of animals)” value was 4. In addition, the mortality at 30 mg/kg in assay [3] came to 50%.
On to `O=C1CCCC(=O)N1CCN1CCCC1` [Compound 23], for which, in assay [5], the inhibition in vivo at 30 mg/kg was found to be 36%; the mortality at 30 mg/kg worked out at 50%; the “Average expectancy life (days), Relative” value is 23.8 days; the “Average expectancy life (days), Vs. control” value is “+13.1 days”. In addition, the mortality at 30 mg/kg in assay [3] amounted to 40%.
In the case of `O=C1CCCC(=O)N1CCCn1ccnc1` [Compound 24], in assay [3], the mortality at 30 mg/kg is 55%.
As for `O=C1CCCC(=O)N1CCn1ccnc1` [Compound 30], in assay [5], the inhibition in vivo at 30 mg/kg was found to be 18%; the mortality at 30 mg/kg stood at 60%; the “Average expectancy life (days), Relative” value is 13.1 days; the “Average expectancy life (days), Vs. control” value is recorded as “+2.4 days”. The mortality at 30 mg/kg in assay [3] is 50%.
The like results for `O=C1CCCC(=O)N1CCc1cn[nH]n1` [Compound 35] were, in that order, 27%, 53.3%, 16.6 days, “+5.9 days” and 55%.
On to `O=C1CCCC(=O)N1CCc1nnn[nH]1` [Compound 36], for which, in assay [5], the inhibition in vivo at 30 mg/kg was found to be 27%; the mortality at 30 mg/kg was 53.3%; the “Average expectancy life (days), Relative” value is on record as 16.7 days; the “Average expectancy life (days), Vs. control” value is “+6.0 days”. Further, the mortality at 30 mg/kg in assay [3] stood at 60%.
Take `O=C(O)C(Cc1ccccn1)N1C(=O)CCCC1=O` (centres unmarked) [Compound 83]: the mortality at 30 mg/kg in assay [3] is 45%.
For the compound `O=C1CCCC(=O)N1CCC1CCNC1` (centres unmarked) [Compound 120], the “Degree of pulmonary edema” value in assay [2] came to 1.05 ± 0.14 score.
As to `O=C1CCCC(=O)N1CCC1CCCNC1` (centres unmarked) [Compound 121], the “Degree of pulmonary edema” value in assay [2] came to 0.90 ± 0.21 score.
On the same count and under the same terms, as for `O=C1CCCC(=O)N1CCC1CCNCC1` [Compound 123], the figure is 1.30 ± 0.17 score.
For the compound `NC(=O)c1ncn([C@@H]2O[C@H](CO)[C@@H](O)[C@H]2O)n1` [Ribavirin, reference compound], in assay [4] (Ribavirin 40 mg/kg), the “Suppression of the reproduction of the virus in mouse lungs, Δ lg, Day 2 after infection” value was 0.88 ± 0.5 Δ lg; the “Suppression of the reproduction of the virus in mouse lungs, Δ lg, Day 3 after infection” value is listed as 2.18 ± 0.26 Δ lg; the “Suppression of the reproduction of the virus in mouse lungs, Δ lg, Day 4 after infection” value is given as 2 ± 0.16 Δ lg; the “Body weight of the mice after infection with hRV, day 0” value stood at 7.66 ± 0.89. Further, in assay [4] (Ribavirin 40 mg/kg), the “Body weight of the mice after infection with hRV, day 1” value was 8.81 ± 5.94; the “Body weight of the mice after infection with hRV, day 2” value is recorded as 13.87 ± 5.11; the “Lung weight of the mice after infection with hRV, day 2” value is given as 152.6 ± 4.55; the “Body weight of the mice after infection with hRV, day 3” value is 13.11 ± 1.37. In assay [4] (Ribavirin 40 mg/kg), the “Lung weight of the mice after infection with hRV, day 3” value is reported as 130.1 ± 5.4; the “Body weight of the mice after infection with hRV, day 4” value was determined as 13.37 ± 1.22; the “Lung weight of the mice after infection with hRV, day 4” value stood at 120.5 ± 3.37. In assay [4] (setting [8]), the “Infectious titer of the virus in lungs, lg TCID50, Day 2 after infection” value is reported as 3.13 ± 0.5 lg TCID50; the “Infectious titer of the virus in lungs, lg TCID50, Day 3 after infection” value worked out at 0.33 ± 0.26 lg TCID50; the “Infectious titer of the virus in lungs, lg TCID50, Day 4 after infection” value came out at 0.2 ± 0.16 lg TCID50.
